Measured values: patent publication US11161824B2, “Heterocyclic lipoxin analogs and uses thereof” (University College Dublin, National University of Ireland, …, priority 2016, dated 2021)
Where two headings read alike, the source gives them in different places.

What was measured:
NFkB [1] = experiment: NFkB-driven luciferase activity in resting conditions (absence of LPS) in THP-1 LUCIA monocytes; format: cell-based; conditions: 10^-12 M to 10^-6 M, 24 h
Experimental: 1×10^5 THP-1 LUCIA monocytes were treated for 30 min with native (a) LXA4 1, its stable imidazole-lipoxin analogues (1R)-9 and (1S)-9, vehicle or appropriate controls, at increasing doses ranging from 10^−12 M up to 10^−6 M. After 24 h, supernatants were collected and NFkB-driven luciferase was measured. Data are expressed as % Relative Luminescence Unit relative to LPS alone ±SEM (n=3).
(§1) The experiments were based around a model which utilised 1×10^5/ml THP-1 monocytes stably expressing NFkB luciferase reporter gene (LUCIA).
(§2) Anti-inflammatory activity was assessed by testing 10 analogues (6 quinoxalines & 4 isoquinolines) in presence & absence of lipopolysaccharide (LPS). For each analogue, a dose-response from 10^−12 M up to 10^−6 M was performed. The vehicle control corresponded to 0.1% Ethanol. NFkB activator, Heat-Killed Listeria Monocytogenes (HKLM) (10^7 cells/ml), were used as positive control for luciferase induction. 10^−6 M Dexamethasone (Dex) was used as positive control for luciferase inhibition. […] Benzo-lipoxin A4 (BLX) was used as positive control for LXA4 analogues.

[2] = test system: zymosan-induced peritonitis; experiment: Murine zymosan-induced peritonitis; format: in vivo, C57BL6/J mice; conditions: lavage 24 h
Experimental: As shown in FIG. 17 zymosan [1 mg per mouse in 200 μl H2O] induced a massive influx of leukocytes detected in lavage 24 h post-zymosan. […] Mean of total cell numbers=4.27×10^6/ml [basal]; 5.9×107 [vehicle pretreatment and zymosan]; 2.18×107 [LXA4 pretreatment and zymosan]. Pretreament with (R) and (S) epimers of 9 also attenuated cell influx: 2.5×10^7/ml [pretreatment with (1R)-9 and zymosan; p=0.0368, relative to zymosan alone]; 1.16×107 (1S)-9 [p=0.0048 relative to zymosan alone]. Importantly, (1R)-9 and (1S)-9 were administered at doses of 1.7 ng/g using the same regimen as LXA4. As anticipated the leukocyte influx was predominantly neutrophil [PMN]. PMN numbers were reduced to 35, 44 and 20% maximum response by LXA4, (1R)-9 and (1S)-9 epimers respectively.
Effect of LXA4 1 and imidazole-lipoxin analogues (1R)-9 and (1S)-9 on murine zymosan-induced peritonitis. Peritonitis was induced in groups of 5 male C57BL6/J mice by injection of zymosan (Sigma) i.p. (1 mg per mouse in 200 μl H2O). Mice were treated with LXA4 1; (5 ng/g); (1R)-9 (1.7 ng/g) or (1S)-9 (1.7 ng/g) (200 μl i.p.) 30 minutes prior to zymosan injection and again, 1 hour after zymosan injection. Treatments with LXA4 1, (1R)-9 and (1S)-9 are designated A, B and C respectively. Peritoneal cells were collected by lavage 24 hours after injection of zymosan. Cells were incubated with LIVE/DEAD Fixable Aqua stain (Molecular probes, Invitrogen) to isolate dead cells. Data shown are total cell counts/ml. Surface marker expression on peritoneal cells was assessed by flow cytometry with data collection on a CyAn (Beckman Coulter). Data were analyzed using FlowJo software (Tree Star). Cells were stained with BD Biosciences mAbs; Siglec-F-PE (E50-2440), F4/80-FITC (BM8), eBiosciences mAb; CD11b-PerCP (M1/70) and BioLegend mAbs; CD206-PECy7 (C068C2) and Ly6G-APCCy7 (1A8). Using appropriate isotype-controls, quadrants were drawn and data plotted on logarithmic scale density- or dot-plots to investigate the relative % of PMN, eoisiophils, M1 and M2 macrophgaes. […]

Th1 cytokine release = experiment: LPS-induced Th1 cytokine release from THP-1 LUCIA monocytes; format: cell-based; conditions: 10^-11, 10^-9 or 10^-7 M; 50 ng/ml LPS 24 h; IL1β, IL6, IL12p70, IFNγ, TNF-α as per figure
Experimental: FIG. 2A-2E are graphs showing imidazole-lipoxin analogues (1R)-9 and (1S)-9 reduce LPS-induced Th1 cytokine release. 1×10^5 THP-1 LUCIA monocytes were pre-treated for 30 min with […], 10^−9 M or 10^−7 M of LXA4 1 and imidazole-lipoxin analogues (1R)-9 and (1S)-9, vehicle or appropriate controls. After 24 h from stimulation with 50 ng/ml of LPS, supernatants were collected and […] (FIG. 2A), IL6 (FIG. 2B), IL12p70 (FIG. 2C), IFNγ (FIG. 2D), and TNF-α (FIG. 2E) levels were measured. Data are expressed as % cytokine secretion relative to LPS alone ±SEM (n=3), *=p<0.05, **=p<0.01, ***=p<0.001.
FIG. 6A-6C are graphs showing that quinoxaline-lipoxin analogue (1R)-CT-4-43 inhibits LPS-induced Th1 cytokine release. 1×10^5 THP-1 LUCIA monocytes were pre-treated for 30 min with […], 10^−9 M or 10^−7 M of LXA4 and quinoxaline-lipoxin analogue (1R)-CT-4-43, vehicle or appropriate controls. After 24 h from stimulation with 50 ng/ml of LPS, supernatants were collected and IL13 (FIG. 6A), IL6 (FIG. 6B), and IFNγ (FIG. 6C) levels were measured. Data are expressed as % cytokine secretion relative to LPS alone ±SEM (n=3), *=p<0.05, **=p<0.01, ***=p<0.001.
FIG. 9A-9C are graphs showing that the isoquinoline-lipoxin analogue RB3 inhibit LPS-induced Th1 cytokine release. 1×10^5 THP-1 LUCIA monocytes were pre-treated for 30 min with 10^−11 M, 10^−9 M or 10^−7 M of LXA4 and isoquinoline-lipoxin analogue (1R)-RB3, vehicle or appropriate controls. After 24 h from stimulation with 50 ng/ml of LPS, supernatants were collected and IL1β(FIG. 9A), IL6 (FIG. 9B), and IL12p70 (FIG. 9C) levels were measured. Data are expressed as % cytokine secretion relative to LPS alone ±SEM (n=3), *=p<0.05, **=p<0.01, ***=p<0.001.

NFkB [3] = experiment: LPS-induced NFkB-driven luciferase activity in THP-1 LUCIA monocytes; format: cell-based; conditions: for effect on LPS-induced NFkB-driven luciferase activity (in words): doses 10^-12 M to 10^-6 M, 50 ng/ml LPS, 24 h; for reduction of LPS-induced NFkB luciferase activity: 30 min pre-treatment, then 24 h with 50 ng/ml LPS, relative to LPS
Experimental: 1×10^5 THP-1 LUCIA monocytes were pre-treated for 30 min with native LXA4 1 (FIG. 1A), imidazole analogues 9 [(1R)-epimer (FIG. 1B) and (1S)-epimer (FIG. 1C)], vehicle or appropriate controls, at increasing doses ranging from 10^−12 M up to 10^−6 M. 10^8 HKLM was used as positive control for NFkB activation. After 24 h from stimulation with 50 ng/ml of LPS, supernatants were collected and NFkB-driven luciferase was measured. (d) Data are expressed as % Relative Luminescence Unit relative to LPS alone ±SEM (n=3), *=p<0.05, **=p<0.01, ***=p<0.001. Graphs display the statistical analysis of the tested compound vs LPS.
as §1, §2
A 2-tailed, assuming unequal variance T-test analysis was performed on three independent experiments for each assay. P-values were considered significant when p<0.05. If p<0.05, then * or $; if p<0.01, then ** or $$ or ##; if p<0.001, then *** or $$$ or ###.
Cells were seeded in 96-well plates and pre-treated with increasing doses of LXA4, analogues or controls for 30 min, followed by 24 h of co-incubation with 50 ng/ml LPS. […] (*=statistical analysis vs LPS; $=statistical analysis vs LXA4)

[4] = test system: carrageenan-induced paw swelling; experiment: Murine carrageenan-induced paw swelling; format: in vivo, C57Bl/6 mice; conditions: 45 ng/mouse i.p. 30 mins before intrapaw 1% carrageenan; 4-72 h
Experimental: CT4-43 attenuates carageenan-induced paw swelling—Mice [male C57Bl/6] were administered vehicle [0.01% EtOH] or CT4-4 [45 ng/mouse i.p] 30 mins before intrapaw injection of 1% carageenan. Paw swelling was monitored over time [4-72 h] using an external lever gauge [Kroeplin]. Data are presented as mean+/−SEM, n=3 mice/treatment group.

THP-1 monocytes = test system: THP-1 monocytes
Experimental: Cytotoxicity Prior to functional assay testing, all compounds were screened for any cytotoxic effect, in the presence & absence of LPS, measuring the level of lactate dehydrogenase (LDH) released at A490nm.
The cells were treated as described above and, after 24 h, supernatant was collected and LDH activity assayed.

[5] = 1.7 ng/g i.p. 30 min before and 1 h after zymosan

Row | Structure (SMILES) | NFkB-driven luciferase activity in resting conditions (in words) (NFkB [1]) | PMN numbers [2, 5] | effect on LPS-induced Th1 cytokine release (in words) (Th1 cytokine release) | effect on LPS-induced NFkB-driven luciferase activity (in words) (NFkB [3]) | further results
1 | CCCCC[C@@H](O)c1nc(-c2ccccc2)n(-c2ccccc2)c1/C=C/[C@@H](O)[C@@H](O)CCCC(=O)OC [(1R)-9, Methyl (5S,6R,E)-5,6-dihydroxy-8-(4-((R)-1-hydroxyhexyl)-1,2-diphenyl-1H-imidazol-5-yl)oct-7-enoate] | do not elicit | 44 % maximum response | reduce | attenuating | 
2 | CCCCC[C@@H](O)c1nc2ccccc2nc1/C=C/[C@@H](O)[C@@H](O)CCCC(=O)OC [(1R)-CT4-43, Methyl (5S,6R,E)-5,6-dihydroxy-8-(3-((R)-1-hydroxyhexyl)quinoxalin-2-yl)oct-7-enoate] | does not elicit |  | inhibits | attenuating | effect on carrageenan-induced paw swelling (in words) [4]: attenuates; reduction of LPS-induced NFkB luciferase activity (NFkB [3]; 1 nM): 38.2±8.2%; reduction of LPS-induced NFkB luciferase activity (NFkB [3]; 10 nM): 34.8±4.2%; potency in reducing LPS-induced NFkB activity, comparison in words (NFkB [3]; versus LXA4 or other analogues): significantly more potent than LXA4
3 | CCCCC[C@H](O)c1nc(-c2ccccc2)n(-c2ccccc2)c1/C=C/[C@@H](O)[C@@H](O)CCCC(=O)OC [(1S)-9, Methyl (5S,6R,E)-5,6-dihydroxy-8-(4-((S)-1-hydroxyhexyl)-1,2-diphenyl-1H-imidazol-5-yl)oct-7-enoate] | do not elicit | 20 % maximum response | reduce | attenuating | 
4 | CCCCC[C@@H](O)c1ccccc1/C=C/[C@@H](O)[C@@H](O)CCCC(=O)OC [Blx] |  |  |  |  | effect on LPS-induced LDH activity (cytotoxicity, in words) (THP-1 monocytes): significantly (p<0.001) decreased
5 | C[C@@H]1C[C@H]2[C@@H]3CCC4=CC(=O)C=C[C@]4(C)[C@@]3(F)[C@@H](O)C[C@]2(C)[C@@]1(O)C(=O)CO [Dexamethasone] |  |  |  |  | effect on LPS-induced LDH activity (cytotoxicity, in words) (THP-1 monocytes; human, 24 h): significantly (p<0.001) increased
6 | CCCCC[C@H](O)/C=C/C=C\C=C\C=C\[C@@H](O)[C@@H](O)CCCC(=O)O [LXA4, Lipoxin A4, reference compound] |  |  |  |  | PMN numbers ([2]; 5 ng/g i.p. 30 min before and 1 h after zymosan): 35 % maximum response; reduction of LPS-induced NFkB luciferase activity (NFkB [3]; 100 nM): 24±1.1%; concentration at which maximal inhibition of LPS-induced NFkB activity is reached (NFkB [3]; dose-response 10^-12 M to 10^-6 M): 100 nM
